One may read the inhibition as the drop in the measured response relative to a control, in per cent. Usually IC50 stands for the concentration that gives 50% inhibition.

The text below walks through data of ChEMBL document CHEMBL1157205, “Design, synthesis, and biological evaluation of glycine-based molecular tongs as inhibitors of Abeta1-40 aggregation in vitro” (Bioorg Med Chem, 2008).

A short description of test [1]: Inhibition of amyloid beta (1 to 40) aggregation assessed as emission of thioflavin T fluorescence at 100 uM in presence of 1,1,1,3,3,3-hexaflouro-2-propanol.
Test [2] can be described thus: Inhibition of amyloid beta (1 to 40) aggregation assessed as emission of thioflavin T fluorescence in presence of 1,1,1,3,3,3-hexaflouro-2-propanol.

As for `COc1cc(C(=O)NCCCCC(=O)Nc2ccc(Oc3cccc(NC(=O)CCCCNC(=O)c4cc(OC)c(OC)c(OC)c4)c3)cc2)cc(OC)c1OC`, the inhibition in test [1] worked out at 0%. Regarding `COc1cc(C(=O)NCC(=O)Nc2ccc(Oc3cccc(NC(=O)CNC(=O)c4cc(OC)c(OC)c(OC)c4)c3)cc2)cc(OC)c1OC`, the inhibition in test [1] was determined as 9%.

On to `O=C(CNC(=O)CNC(=O)c1cc([N+](=O)[O-])cc([N+](=O)[O-])c1)NCc1cccc(CNC(=O)CNC(=O)CNC(=O)c2cc([N+](=O)[O-])cc([N+](=O)[O-])c2)c1`, for which the inhibition in test [1] was found to be 23%. For the compound `O=C(CNC(=O)c1ccccc1)Nc1ccc(Oc2cccc(NC(=O)CNC(=O)c3ccccc3)c2)cc1`, the inhibition in test [1] worked out at 7%. In the case of `O=C(CNC(=O)c1cc([N+](=O)[O-])cc([N+](=O)[O-])c1)Nc1ccc(Oc2cccc(NC(=O)CNC(=O)c3cc([N+](=O)[O-])cc([N+](=O)[O-])c3)c2)cc1`, the inhibition in test [1] was determined as 44%.

Turning to `O=C(CNC(=O)CNC(=O)c1ccccc1)NCC(=O)NCc1cccc(CNC(=O)CNC(=O)CNC(=O)CNC(=O)c2ccccc2)c1`, the inhibition in test [1] amounted to 19%. For the compound `O=C(CNC(=O)c1cc([N+](=O)[O-])cc([N+](=O)[O-])c1)NCC(=O)Nc1ccc(Oc2cccc(NC(=O)CNC(=O)CNC(=O)c3cc([N+](=O)[O-])cc([N+](=O)[O-])c3)c2)cc1`, the inhibition in test [1] stood at 30%. Turning to `O=C(CNC(=O)c1cc([N+](=O)[O-])cc([N+](=O)[O-])c1)NCc1cccc(CNC(=O)CNC(=O)c2cc([N+](=O)[O-])cc([N+](=O)[O-])c2)c1`, the inhibition in test [1] is 33%. As for `O=C(CNC(=O)CNC(=O)c1ccccc1)NCc1cccc(CNC(=O)CNC(=O)CNC(=O)c2ccccc2)c1`, the inhibition in test [1] is 10%. Consider `Nc1cccc(Oc2ccc(NC(=O)CNC(=O)CNC(=O)c3cc([N+](=O)[O-])cc([N+](=O)[O-])c3)cc2)c1`, for which the inhibition in test [1] worked out at 0%. On the same count and under the same terms, as for `O=C(CNC(=O)CNC(=O)c1cc([N+](=O)[O-])cc([N+](=O)[O-])c1)NCC(=O)NCc1cccc(CNC(=O)CNC(=O)CNC(=O)CNC(=O)c2cc([N+](=O)[O-])cc([N+](=O)[O-])c2)c1`, the figure is 13%. Regarding `COc1cc(C(=O)NCC(=O)NCC(=O)NCc2cccc(CNC(=O)CNC(=O)CNC(=O)c3cc(OC)c(OC)c(OC)c3)c2)cc(OC)c1OC`, the inhibition in test [1] was determined as 31%. As for `O=C(CNC(=O)c1cc(O)c(O)c(O)c1)Nc1ccc(Oc2cccc(NC(=O)CNC(=O)c3cc(O)c(O)c(O)c3)c2)cc1`, the IC50 in test [2] came to 1.5 µM. For the same compound, the inhibition in test [1] is 79%. `O=C(CNC(=O)c1cc(O)c(O)c(O)c1)NCc1cccc(CNC(=O)CNC(=O)c2cc(O)c(O)c(O)c2)c1`: in test [1], the inhibition worked out at 39%.

In the case of `O=C(CNC(=O)c1cc(O)c(O)c(O)c1)NCC(=O)Nc1ccc(Oc2cccc(NC(=O)CNC(=O)CNC(=O)c3cc(O)c(O)c(O)c3)c2)cc1`, the IC50 in test [2] is 28 µM. Besides, the inhibition in test [1] worked out at 80%.

For `O=C(NCc1cccc(CNC(=O)c2ccccc2)c1)c1ccccc1`, the inhibition in test [1] worked out at 3%. For `COc1cc(C(=O)NCC(=O)NCC(=O)Nc2ccc(Oc3cccc(NC(=O)CNC(=O)CNC(=O)c4cc(OC)c(OC)c(OC)c4)c3)cc2)cc(OC)c1OC`, the inhibition in test [1] worked out at 40%. As to `O=C(CNC(=O)c1ccccc1)NCc1cccc(CNC(=O)CNC(=O)c2ccccc2)c1`, in test [1], the inhibition worked out at 9%. In the case of `COc1cc(C(=O)NCC(=O)NCc2cccc(CNC(=O)CNC(=O)c3cc(OC)c(OC)c(OC)c3)c2)cc(OC)c1OC`, the inhibition in test [1] is 28%.

On to `O=C(CNC(=O)CNC(=O)c1cc([N+](=O)[O-])cc([N+](=O)[O-])c1)NCCCNCCCNC(=O)CNC(=O)CNC(=O)c1cc([N+](=O)[O-])cc([N+](=O)[O-])c1`, for which, in test [1], the inhibition worked out at 9%. For `COc1cc(C(=O)NCC(=O)NCC(=O)NCC(=O)Nc2ccc(Oc3cccc(NC(=O)CNC(=O)CNC(=O)CNC(=O)c4cc(OC)c(OC)c(OC)c4)c3)cc2)cc(OC)c1OC`, the inhibition in test [1] is 20%. Consider `COc1cc(C(=O)NCC(=O)NCC(=O)NCC(=O)O)cc(OC)c1OC`, for which the inhibition in test [1] stood at 11%. As to `O=C(O)CNC(=O)CNC(=O)CNC(=O)c1cc([N+](=O)[O-])cc([N+](=O)[O-])c1`, the inhibition in test [1] worked out at 36%. Turning to `O=C(Nc1ccc(Oc2cccc(NC(=O)c3cc(O)c(O)c(O)c3)c2)cc1)c1cc(O)c(O)c(O)c1`, in test [2], the half-inhibitory concentration (IC50) is 12 µM. In addition, the inhibition in test [1] is 70%.

For the compound `O=C(CNC(=O)c1ccccc1)NCC(=O)Nc1ccc(Oc2cccc(NC(=O)CNC(=O)CNC(=O)c3ccccc3)c2)cc1`, the inhibition in test [1] is -3%. On to `COc1cc(C(=O)NCC(=O)NCC(=O)NCC(=O)NCc2cccc(CNC(=O)CNC(=O)CNC(=O)CNC(=O)c3cc(OC)c(OC)c(OC)c3)c2)cc(OC)c1OC`, for which the inhibition in test [1] stood at 15%. Same read-out and setting: the value for `O=C(NCc1cccc(CNC(=O)c2cc(O)c(O)c(O)c2)c1)c1cc(O)c(O)c(O)c1` was 61%; that for `O=C(CNC(=O)CNC(=O)c1cc(O)c(O)c(O)c1)NCC(=O)NCc1cccc(CNC(=O)CNC(=O)CNC(=O)CNC(=O)c2cc(O)c(O)c(O)c2)c1` was 4%. `O=c1c(O)c(-c2ccc(O)c(O)c2)oc2cc(O)cc(O)c12` [QUERCETIN]: the IC50 in test [2] was 0.8 µM. For the compound `O=C(CNC(=O)CNC(=O)c1cc(O)c(O)c(O)c1)NCc1cccc(CNC(=O)CNC(=O)CNC(=O)c2cc(O)c(O)c(O)c2)c1`, in test [1], the inhibition was 5%. Turning to `O=C(CNC(=O)CNC(=O)c1cc([N+](=O)[O-])cc([N+](=O)[O-])c1)NCC(=O)Nc1ccc(Oc2cccc(NC(=O)CNC(=O)CNC(=O)CNC(=O)c3cc([N+](=O)[O-])cc([N+](=O)[O-])c3)c2)cc1`, in test [1], the inhibition was determined as 4%.

For `O=C(CNC(=O)C1CCCCC1)NCC(=O)Nc1ccc(Oc2cccc(NC(=O)CNC(=O)CNC(=O)C3CCCCC3)c2)cc1`, the inhibition in test [1] is 17%.

On to `O=C(CNC(=O)CNC(=O)c1ccccc1)NCC(=O)Nc1ccc(Oc2cccc(NC(=O)CNC(=O)CNC(=O)CNC(=O)c3ccccc3)c2)cc1`, for which the inhibition in test [1] is -3%. The same measure, in the same setting: as for `COc1cc(C(=O)NCc2cccc(CNC(=O)c3cc(OC)c(OC)c(OC)c3)c2)cc(OC)c1OC`, the figure is 19%. With `O=C(NCc1cccc(CNC(=O)c2cc([N+](=O)[O-])cc([N+](=O)[O-])c2)c1)c1cc([N+](=O)[O-])cc([N+](=O)[O-])c1`, the inhibition in test [1] turned out to be 4%.
